Data on six compounds can be found in patent US12139520B2 (priority 2020, dated 2024).

Bridge positions count the residues as written; N and C are the ends. Square brackets hold non-standard residues; d marks the D form. Peptide text beside a SMILES is read from it. Hyp = O=C(O)[C@@H]1C[C@@H](O)CN1; Cit = NC(=O)NCCC[C@H](N)C(=O)O

The term EC50 denotes the concentration that produces a half-maximal response.

Data set [1] can be described thus: Physical stability of peptide analogues (Thioflavin T fibrillation). The data set is classed as physicochemical. The following applies: maximum ThT signal normalized between hAMY maximum and buffer background; 40° C., shaking, four days; pH 7 per table title. The method in brief:
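ThT fluorescence (450 nm excitation, 480 nm emission; 4 μM dye) was read every 10 min over four days at 40° C under 700 rpm shaking stress, after 1 h in pH 4 acetate or pH 7 phosphate (50 mM). Peak smoothed signal expressed as percent, scaled between buffer background and hAMY maximum.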

For a further data set, the target named is hAM1 receptor (Homo sapiens, UniProt O60895+Q16602). Kind of data set: cAMP assay for in vitro receptor activation, hAM1-R. The data set is classed as cell-based. The following applies: cAMP assay, hAM1 receptor; read-out: hAM1R EC50. A digest of the protocol: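 cAMP accumulation was measured in a monoclonal cell line stably overexpressing the hAM1 receptor. Frozen aliquots were thawed and plated at 8000 cells/well in DPBS containing 0.05% casein and 0.5 mM IBMX.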
Chain of hAM1 receptor (Q16602 23-461): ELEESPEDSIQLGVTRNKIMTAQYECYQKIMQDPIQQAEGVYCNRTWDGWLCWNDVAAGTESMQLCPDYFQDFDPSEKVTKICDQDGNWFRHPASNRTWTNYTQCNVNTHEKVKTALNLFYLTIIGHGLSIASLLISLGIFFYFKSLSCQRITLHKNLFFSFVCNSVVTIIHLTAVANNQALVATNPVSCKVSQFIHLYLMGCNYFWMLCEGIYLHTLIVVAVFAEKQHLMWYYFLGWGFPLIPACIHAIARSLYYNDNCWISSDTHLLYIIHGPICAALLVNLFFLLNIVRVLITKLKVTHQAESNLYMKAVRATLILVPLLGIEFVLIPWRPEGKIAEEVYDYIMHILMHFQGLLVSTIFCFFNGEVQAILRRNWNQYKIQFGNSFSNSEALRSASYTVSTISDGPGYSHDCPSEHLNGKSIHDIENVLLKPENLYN
Chain of hAM1 receptor (O60895 43-175 partner): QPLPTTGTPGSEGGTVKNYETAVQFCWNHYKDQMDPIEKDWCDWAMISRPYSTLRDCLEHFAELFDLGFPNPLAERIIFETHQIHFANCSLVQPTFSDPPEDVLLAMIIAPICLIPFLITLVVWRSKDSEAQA
On the technique in general: Changes in cAMP serve as a functional read-out for many G protein-coupled receptors.

A further data set deals with T1, hAMY3 receptor (Homo sapiens, UniProt O60896+P30988).
T1 sequence (P30988 25-474): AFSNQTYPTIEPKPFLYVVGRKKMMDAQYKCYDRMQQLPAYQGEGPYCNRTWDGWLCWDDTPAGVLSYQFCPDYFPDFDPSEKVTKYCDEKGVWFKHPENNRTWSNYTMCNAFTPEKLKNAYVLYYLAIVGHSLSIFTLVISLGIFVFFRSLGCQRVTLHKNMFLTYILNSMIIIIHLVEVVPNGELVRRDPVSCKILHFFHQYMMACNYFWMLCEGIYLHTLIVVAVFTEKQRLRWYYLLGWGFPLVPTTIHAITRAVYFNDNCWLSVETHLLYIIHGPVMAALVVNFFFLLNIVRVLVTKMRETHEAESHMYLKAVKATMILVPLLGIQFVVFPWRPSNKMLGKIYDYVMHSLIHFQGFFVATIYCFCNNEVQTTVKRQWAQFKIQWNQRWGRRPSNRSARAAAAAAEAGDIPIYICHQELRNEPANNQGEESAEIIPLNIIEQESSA
T1 sequence (O60896 24-148 partner): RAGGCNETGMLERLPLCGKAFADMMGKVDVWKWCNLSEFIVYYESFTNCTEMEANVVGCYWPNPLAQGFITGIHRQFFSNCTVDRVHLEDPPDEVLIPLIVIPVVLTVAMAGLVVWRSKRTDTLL
Kind of data set: cAMP assay for in vitro receptor activation, hAMY3-R. Conditions: cAMP assay, hAMY3 receptor; read-out: hAMY3R EC50. The format is cell-based. The method in brief:
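Receptor activation was measured as cAMP accumulation in a monoclonal cell line stably overexpressing hAMY3. Stimulation with graded doses lasted 30 min at room temperature in the presence of 0.5 mM IBMX, with human amylin as positive control.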

On to `CC[C@H](C)[C@H](NC(=O)[C@H](CCC(N)=O)NC(=O)[C@H](Cc1c[nH]cn1)NC(=O)[C@H](C)NC(=O)[C@H](CC(C)C)NC(=O)[C@H](CCCNC(=N)N)NC(=O)[C@H](CCC(N)=O)NC(=O)[C@@H](NC(=O)[C@@H](NC(=O)[C@@H]1CSSC[C@H](NC(=O)[C@@H](N)CCCCN)C(=O)N[C@@H](CC(N)=O)C(=O)N[C@@H]([C@@H](C)O)C(=O)N[C@@H](C)C(=O)N[C@@H]([C@@H](C)O)C(=O)N1)[C@@H](C)O)C(C)C)C(=O)N[C@@H](Cc1ccc(O)cc1)C(=O)N[C@@H](CCC(N)=O)C(=O)N[C@H](C(=O)N[C@@H](CC(=O)O)C(=O)N[C@@H](CCCCN)C(=O)N[C@@H](CC(=O)O)C(=O)N[C@@H](CCCCN)C(=O)N[C@@H](CC(=O)O)C(=O)N[C@@H](CC(N)=O)C(=O)N[C@H](C(=O)N[C@@H](C)C(=O)N1CCC[C@H]1C(=O)N1CCC[C@H]1C(=O)N[C@H](C(=O)N[C@@H](CC(N)=O)C(=O)N[C@H](C(=O)NCC(=O)N[C@@H](CO)C(=O)N[C@@H](CC(N)=O)C(=O)NCC(=O)N1C[C@H](O)C[C@H]1C(N)=O)C(C)C)[C@@H](C)O)C(C)C)[C@@H](C)O` [compound 195] (H-KCNTATCTVQRLAHQIYQTDKDKDNVAPPTNVGSNG[Hyp]-NH2; disulfide 2-7; N-terminus assumed), for which the “Max ThT signal (%)” value in data set [1] is 6.100%. Also, the values for the 50% effective concentration (EC50) at hAM1 receptor and on hAMY3 receptor were more than 5000 nM and 0.112 nM, respectively.
For the compound `CC[C@H](C)[C@H](NC(=O)[C@H](CCC(N)=O)NC(=O)[C@H](Cc1c[nH]cn1)NC(=O)[C@H](C)NC(=O)[C@H](CC(C)C)NC(=O)[C@H](CCCNC(N)=O)NC(=O)[C@H](CCC(N)=O)NC(=O)[C@@H](NC(=O)[C@@H](NC(=O)[C@@H]1CSSC[C@H](NC(=O)CN)C(=O)N[C@@H](CCCNC(=N)N)C(=O)N[C@@H]([C@@H](C)O)C(=O)NCC(=O)N[C@@H]([C@@H](C)O)C(=O)N1)[C@@H](C)O)C(C)C)C(=O)N[C@@H](Cc1ccc(O)cc1)C(=O)N[C@@H](CCC(N)=O)C(=O)N[C@@H](Cc1ccccc1)C(=O)N[C@H](C(=O)N[C@@H](CC(=O)O)C(=O)N[C@@H](CCCCN)C(=O)N[C@@H](CC(=O)O)C(=O)N[C@@H](CCCCN)C(=O)N[C@@H](CC(=O)O)C(=O)N[C@@H](CC(N)=O)C(=O)N[C@H](C(=O)N[C@@H](C)C(=O)N1CCC[C@H]1C(=O)N[C@@H](CCCNC(=N)N)C(=O)N[C@@H](CO)C(=O)N[C@@H](CCCCN)C(=O)N[C@H](C(=O)NCC(=O)N1CCC[C@H]1C(=O)N[C@@H](CCC(N)=O)C(=O)NCC(=O)N[C@@H](Cc1ccc(O)cc1)C(N)=O)C(C)C)C(C)C)[C@@H](C)O` [compound 285] (H-GCRTGTCTVQ[Cit]LAHQIYQFTDKDKDNVAPRSKVGPQGY-NH2; disulfide 2-7; N-terminus assumed), in data set [1], the “Max ThT signal (%)” value is given as 31.200%. Also, the EC50 at hAM1 receptor was more than 5000 nM; at hAMY3 receptor, 0.157 nM.
The corresponding values for `CC[C@H](C)[C@H](NC(=O)[C@H](CCC(N)=O)NC(=O)[C@H](Cc1c[nH]cn1)NC(=O)[C@H](C)NC(=O)[C@H](CC(C)C)NC(=O)[C@H](CCCNC(=N)N)NC(=O)[C@H](CCC(N)=O)NC(=O)[C@@H](NC(=O)[C@@H](NC(=O)[C@@H]1CSSC[C@H](NC(=O)CN)C(=O)N[C@@H](CCCNC(=N)N)C(=O)N[C@@H](Cc2ccccc2)C(=O)NCC(=O)N[C@@H]([C@@H](C)O)C(=O)N1)[C@@H](C)O)C(C)C)C(=O)N[C@@H](Cc1ccc(O)cc1)C(=O)N[C@@H](CCC(N)=O)C(=O)N[C@@H](Cc1ccccc1)C(=O)N[C@H](C(=O)N[C@@H](CC(=O)O)C(=O)N[C@@H](CCCCN)C(=O)N[C@@H](CC(=O)O)C(=O)N[C@@H](CCCCN)C(=O)N[C@@H](CC(=O)O)C(=O)N[C@@H](CC(N)=O)C(=O)N[C@H](C(=O)N[C@@H](C)C(=O)N1CCC[C@H]1C(=O)N[C@@H](CCCNC(=N)N)C(=O)N[C@@H](CO)C(=O)N[C@@H](CC(N)=O)C(=O)N[C@H](C(=O)N[C@@H](CO)C(=O)N1CCC[C@H]1C(=O)N[C@@H](CC(N)=O)C(=O)NCC(=O)N[C@@H](Cc1ccc(O)cc1)C(N)=O)[C@@H](C)CC)C(C)C)[C@@H](C)O` [compound 383] (H-GCRFGTCTVQRLAHQIYQFTDKDKDNVAPRSNISPNGY-NH2; disulfide 2-7; N-terminus assumed) are 9.600%, 5.94 nM and 0.034 nM.
For the compound `CC[C@H](C)[C@H](NC(=O)[C@H](CCC(N)=O)NC(=O)[C@H](Cc1c[nH]cn1)NC(=O)[C@H](C)NC(=O)[C@H](CC(C)C)NC(=O)[C@H](CCCNC(=N)N)NC(=O)[C@H](CCC(N)=O)NC(=O)[C@@H](NC(=O)[C@@H](NC(=O)[C@@H]1CSSC[C@H](NC(=O)[C@@H](N)CCCCN)C(=O)N[C@@H](CC(N)=O)C(=O)N[C@@H]([C@@H](C)O)C(=O)N[C@@H](C)C(=O)N[C@@H]([C@@H](C)O)C(=O)N1)[C@@H](C)O)C(C)C)C(=O)N[C@@H](Cc1ccc(O)cc1)C(=O)N[C@@H](CCC(N)=O)C(=O)N[C@@H](Cc1ccccc1)C(=O)N[C@H](C(=O)N[C@@H](CC(=O)O)C(=O)N[C@@H](CCCCN)C(=O)N[C@@H](CC(=O)O)C(=O)N[C@@H](CCCCN)C(=O)N[C@@H](C)C(=O)N[C@@H](CC(N)=O)C(=O)N[C@H](C(=O)N[C@@H](C)C(=O)N1CCC[C@H]1C(=O)N1CCC[C@H]1C(=O)N[C@H](C(=O)N[C@@H](CC(N)=O)C(=O)N[C@H](C(=O)NCC(=O)N[C@@H](CO)C(=O)N[C@@H](CC(N)=O)C(=O)NCC(=O)N1C[C@H](O)C[C@H]1C(N)=O)C(C)C)[C@@H](C)O)C(C)C)[C@@H](C)O` [compound 26] (H-KCNTATCTVQRLAHQIYQFTDKDKANVAPPTNVGSNG[Hyp]-NH2; disulfide 2-7; N-terminus assumed), the “Max ThT signal (%)” value in data set [1] is 0.000%. Besides, the figures for the EC50 at hAM1 receptor and on hAMY3 receptor were more than 5000 nM and 0.008 nM, respectively.
The corresponding values for `CC[C@H](C)[C@H](NC(=O)[C@H](CCC(N)=O)NC(=O)[C@H](Cc1c[nH]cn1)NC(=O)[C@H](C)NC(=O)[C@H](CC(C)C)NC(=O)[C@H](CCCNC(N)=O)NC(=O)[C@H](CCC(N)=O)NC(=O)[C@@H](NC(=O)[C@@H](NC(=O)[C@@H]1CSSC[C@H](NC(=O)[C@@H](N)CCCCN)C(=O)N[C@@H](CC(N)=O)C(=O)N[C@@H]([C@@H](C)O)C(=O)N[C@@H](C)C(=O)N[C@@H]([C@@H](C)O)C(=O)N1)[C@@H](C)O)C(C)C)C(=O)N[C@@H](Cc1ccc(O)cc1)C(=O)N[C@@H](CCC(N)=O)C(=O)N[C@@H](Cc1ccccc1)C(=O)N[C@H](C(=O)N[C@@H](CC(=O)O)C(=O)N[C@@H](CCCCN)C(=O)N[C@@H](CC(=O)O)C(=O)N[C@@H](CCCCN)C(=O)N[C@@H](CC(=O)O)C(=O)N[C@@H](CC(N)=O)C(=O)N[C@H](C(=O)N[C@@H](C)C(=O)N1CCC[C@H]1C(=O)N1CCC[C@H]1C(=O)N[C@H](C(=O)N[C@@H](CC(N)=O)C(=O)N[C@H](C(=O)NCC(=O)N[C@@H](CO)C(=O)N[C@@H](CC(N)=O)C(=O)NCC(=O)N1C[C@H](O)C[C@H]1C(N)=O)C(C)C)[C@@H](C)O)C(C)C)[C@@H](C)O` [compound 268] (H-KCNTATCTVQ[Cit]LAHQIYQFTDKDKDNVAPPTNVGSNG[Hyp]-NH2; disulfide 2-7; N-terminus assumed) are 8.850%, more than 5000 nM and 0.014 nM.
The corresponding values for `CC[C@H](C)[C@H](NC(=O)[C@H](CCC(N)=O)NC(=O)[C@H](Cc1c[nH]cn1)NC(=O)[C@H](C)NC(=O)[C@H](CC(C)C)NC(=O)[C@H](Cc1c[nH]c2ccccc12)NC(=O)[C@H](CCC(N)=O)NC(=O)[C@@H](NC(=O)[C@@H](NC(=O)[C@@H]1CSSC[C@H](NC(=O)[C@@H](N)CCCCN)C(=O)N[C@@H](CC(N)=O)C(=O)N[C@@H]([C@@H](C)O)C(=O)N[C@@H](C)C(=O)N[C@@H]([C@@H](C)O)C(=O)N1)[C@@H](C)O)C(C)C)C(=O)N[C@@H](Cc1ccc(O)cc1)C(=O)N[C@@H](CCC(N)=O)C(=O)N[C@@H](Cc1ccccc1)C(=O)N[C@H](C(=O)N[C@@H](CC(=O)O)C(=O)N[C@@H](CCCCN)C(=O)N[C@@H](CC(=O)O)C(=O)N[C@@H](CCCCN)C(=O)N[C@@H](CC(=O)O)C(=O)N[C@@H](CC(N)=O)C(=O)N[C@H](C(=O)N[C@@H](C)C(=O)N1CCC[C@H]1C(=O)N[C@@H](C)C(=O)N[C@H](C(=O)N[C@@H](CC(N)=O)C(=O)N[C@H](C(=O)NCC(=O)N[C@@H](CO)C(=O)N[C@@H](CC(N)=O)C(=O)NCC(=O)N1C[C@H](O)C[C@H]1C(N)=O)C(C)C)[C@@H](C)O)C(C)C)[C@@H](C)O` [compound 316] (H-KCNTATCTVQWLAHQIYQFTDKDKDNVAPATNVGSNG[Hyp]-NH2; disulfide 2-7) are 20.450%, more than 5000 nM and 0.012 nM.
